Inconclusive results and toxic doses are left out. No stated cut-off is given here; in the data, active means T/C of 150% or more; inactive means T/C below 125%.
System: L1210 leukemia ip in BDF1 mice, survival T/C
Test: NCI In Vivo Anticancer Drug Screen. Data for tumor model L1210 Leukemia (intraperitoneal) in B6D2F1 (BDF1) mice
Settings: endpoint: mean survival time, higher = longer survival
Outline: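 Transplanted-tumor mice were given test agent; controls received vehicle only. Survival readings from the two groups were divided (treated over control).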

[1] = dose: 100.0 mg/kg/injection, schedule: Q01DX009 (ip), vehicle: Klucel (hydroxypropylcellulose) (HPC)
[2] = dose: 200.0 mg/kg/injection, schedule: Q01DX009 (ip), vehicle: Klucel (hydroxypropylcellulose) (HPC)
[3] = dose: 100.0 mg/kg/injection, schedule: Q04DX003 (ip), vehicle: Klucel (hydroxypropylcellulose) (HPC)
[4] = dose: 200.0 mg/kg/injection, schedule: Q04DX003 (ip), vehicle: Klucel (hydroxypropylcellulose) (HPC)
[5] = dose: 400.0 mg/kg/injection, schedule: Q04DX003 (ip), vehicle: Klucel (hydroxypropylcellulose) (HPC)
[6] = dose: 100.0 mg/kg/injection, schedule: Q01DX009 (ip), vehicle: saline with Tween-80
[7] = dose: 100.0 mg/kg/injection, schedule: Q04DX003 (ip), vehicle: saline with Tween-80
[8] = dose: 200.0 mg/kg/injection, schedule: Q01DX009 (ip), vehicle: saline with Tween-80
[9] = dose: 200.0 mg/kg/injection, schedule: Q04DX003 (ip), vehicle: saline with Tween-80
[10] = dose: 400.0 mg/kg/injection, schedule: Q04DX003 (ip), vehicle: saline with Tween-80
[11] = dose: 400.0 mg/kg/injection, schedule: Q01DX009 (ip), vehicle: Klucel (hydroxypropylcellulose) (HPC)

Measured: T/C

CC(C(O)c1cc(=O)n(C)c2ccccc12)[N+](=O)[O-] (stereo not drawn)
inactive: dose: 100.0 mg/kg/injection, schedule: Q01DX001 (ip), vehicle: other 95 % of control | dose: 200.0 mg/kg/injection, schedule: Q01DX001 (ip), vehicle: other 110 % of control | dose: 400.0 mg/kg/injection, schedule: Q01DX001 (ip), vehicle: other 101 % of control

CN(C)c1ccc(/C=N/NC(=O)C2CCCO2)c(Cl)c1 (stereo not drawn)
inactive: [1] 102 % of control | [2] 98 % of control

CCCCOCN(COCCCC)C(C)(C)C
inactive: dose: 100.0 mg/kg/injection, schedule: Q01DX001 (ip), vehicle: saline 93 % of control | dose: 200.0 mg/kg/injection, schedule: Q01DX001 (ip), vehicle: saline 98 % of control | dose: 400.0 mg/kg/injection, schedule: Q01DX001 (ip), vehicle: saline 117 % of control

CCOC(=O)/C(C#N)=C1/CC2CCC1(C)OC2(C)C (stereo not drawn)
inactive: [3] 98 % of control | [4] 96 % of control | [5] 102 % of control

O=C(O)C(c1cccs1)c1cccs1
inactive: [6] 102 % of control | [7] 102 % of control | [8] 88 % of control | [9] 92 % of control | dose: 400.0 mg/kg/injection, schedule: Q01DX009 (ip), vehicle: saline with Tween-80 105 % of control | [10] 103 % of control

c1cc[c]([Pb]([S]c2ncnc3c2nc[n]3[Pb]([c]2ccccc2)([c]2ccccc2)[c]2ccccc2)([c]2ccccc2)[c]2ccccc2)cc1.c1cc[c]([Pb]([S]c2ncnc3nc[nH]c23)([c]2ccccc2)[c]2ccccc2)cc1
inactive: dose: 5.0 mg/kg/injection, schedule: Q01DX001 (ip), vehicle: other 103 % of control | dose: 10.0 mg/kg/injection, schedule: Q01DX001 (ip), vehicle: other 121 % of control

O=C(O)c1ccc(OCCOc2ccccc2)c(Cl)c1
inactive: dose: 100.0 mg/kg/injection, schedule: Q01DX009 (ip), vehicle: gum acacia 97 % of control | dose: 200.0 mg/kg/injection, schedule: Q01DX009 (ip), vehicle: gum acacia 88 % of control | dose: 400.0 mg/kg/injection, schedule: Q01DX009 (ip), vehicle: gum acacia 92 % of control

CCNC(=O)NC(C(=O)OCC)C(=O)OCC
inactive: dose: 100.0 mg/kg/injection, schedule: Q01DX001 (ip), vehicle: Klucel (hydroxypropylcellulose) (HPC) 107 % of control | dose: 200.0 mg/kg/injection, schedule: Q01DX001 (ip), vehicle: Klucel (hydroxypropylcellulose) (HPC) 98 % of control | dose: 400.0 mg/kg/injection, schedule: Q01DX001 (ip), vehicle: Klucel (hydroxypropylcellulose) (HPC) 90 % of control

NC(=S)c1cccc(OCc2ccccc2)c1
inactive: [6] 106 % of control | [8] 92 % of control

O=C1c2cc(Cl)ccc2-c2c(Cl)cc(Cl)cc21
inactive: dose: 100.0 mg/kg/injection, schedule: Q01DX001 (ip), vehicle: acetone 89 % of control | dose: 100.0 mg/kg/injection, schedule: Q04DX003 (ip), vehicle: saline 87 % of control | dose: 200.0 mg/kg/injection, schedule: Q01DX001 (ip), vehicle: acetone 89 % of control | dose: 200.0 mg/kg/injection, schedule: Q04DX003 (ip), vehicle: saline 96 % of control | dose: 400.0 mg/kg/injection, schedule: Q01DX001 (ip), vehicle: acetone 95 % of control | dose: 400.0 mg/kg/injection, schedule: Q04DX003 (ip), vehicle: saline 86 % of control

Cc1cccc(NC(=O)Oc2ccc(Nc3ccccc3)cc2)c1
inactive: [1] 96 % of control | [2] 102 % of control | [11] 98 % of control

CCN(CC)CCCC(C)N (stereo not drawn)
inactive: dose: 12.5 mg/kg/injection, schedule: Q04DX003 (ip), vehicle: saline 104 % of control | dose: 25.0 mg/kg/injection, schedule: Q04DX003 (ip), vehicle: saline 100 % of control | dose: 50.0 mg/kg/injection, schedule: Q04DX003 (ip), vehicle: saline 101 % of control

O=C(Nc1ccc(Cl)cc1)c1cc([N+](=O)[O-])ccc1O
inactive: dose: 30.5 mg/kg/injection, schedule: Q02DX010 (ip), vehicle: carboxymethylcellulose (CMC) 95 % of control | dose: 61.0 mg/kg/injection, schedule: Q02DX010 (ip), vehicle: carboxymethylcellulose (CMC) 101 % of control | dose: 122.0 mg/kg/injection, schedule: Q02DX010 (ip), vehicle: carboxymethylcellulose (CMC) 99 % of control | dose: 244.0 mg/kg/injection, schedule: Q02DX010 (ip), vehicle: carboxymethylcellulose (CMC) 94 % of control

CCOc1ccc(OCC)c2c1C(=O)c1ccccc1C2=O
inactive: [1] 97 % of control | [3] 95 % of control | [2] 100 % of control | [4] 100 % of control | [11] 97 % of control | [5] 97 % of control

COc1ccc(OC)c(-n2cccc2C#N)c1
inactive: dose: 100.0 mg/kg/injection, schedule: Q04DX002 (ip), vehicle: Klucel (hydroxypropylcellulose) (HPC) 104 % of control | dose: 200.0 mg/kg/injection, schedule: Q04DX002 (ip), vehicle: Klucel (hydroxypropylcellulose) (HPC) 97 % of control | dose: 400.0 mg/kg/injection, schedule: Q04DX002 (ip), vehicle: Klucel (hydroxypropylcellulose) (HPC) 104 % of control

CC(C)C(Br)C(=O)NCC(=O)O (stereo not drawn)
inactive: [7] 102 % of control | [9] 98 % of control | [10] 98 % of control

CCOc1ccc(C(C)CC(=O)NN)c(O)c1 (stereo not drawn)
inactive: dose: 75.0 mg/kg/injection, schedule: Q01DX001 (ip), vehicle: saline with Tween-80 95 % of control | dose: 150.0 mg/kg/injection, schedule: Q01DX001 (ip), vehicle: saline with Tween-80 98 % of control | dose: 300.0 mg/kg/injection, schedule: Q01DX001 (ip), vehicle: saline with Tween-80 101 % of control

From PubChem BioAssay AID248 (DTP/NCI, 2004)
